# Experiment: Pharmacokinetics in rat plasma, IV and oral
# Format: in vivo, male Sprague-Dawley rats
# Protocol: The research was carried out on male Sprague-Dawley rats obtained from Charles River Laboratories (Germany). […] The age of the animals at the time of administration was 8-10 weeks. The animals were pre-catheterized so that all blood samples during the study of each substance could be taken from the same animals. Each substance was tested in 3 animals at each route of administration. The solution of test substances with a concentration of 0.2 mg/ml in 10% DMSO/10% Solutol/80% 0.05M N-methylglucamine was administered to rats intravenously in the tail vein at a dose of 1 mg/kg. Blood samples were collected at 5, 15, 30 min, 1, 2, 4, 8, and 24 hours after administration. Intragastric administration involved gavage using a solution with a concentration of 0.5 mg/ml in 0.5% methylcellulose at a dose of 5 mg/kg. Blood samples were collected at 15, 30 min, 1, 2, 4, 8, and 24 hours after administration. Blood (0.2 ml) was collected in polypropylene tubes containing 20 μl of 5% NaEDTA. Blood plasma was separated by centrifugation at 1500×g for 10 min and stored until testing at a temperature of −80° C. A pure acetonitrile-water (1:1) mixture (5 μl) was added to 45 μl of test samples. The samples were vortexed thoroughly for 10 seconds. Tolbutamide (100 μl) chilled to +4° C. (200 ng/ml in MeCN) was added to the samples and the mixture was vortexed. The samples were precipitated on ice at +4° C. for 15 minutes and then centrifuged at 2700 g for 10 min at +4° C. Supernatants (100 μl each) were transferred to a blank plate for HPLC/MS/MS analysis. The HPLC/MS/MS analysis was performed using an Agilent 1290 Infinity system coupled to an AB Sciex QTrap 6500 mass spectrometer. Pharmacokinetic analysis of plasma concentration vs time data was performed by a model-independent method using the Phoenix™ WinNonlin® 6.3 software (Pharsight Corp.). […]
structure (smiles),measurement,setting,value
"C[C@H]1CO[C@@H]2Cn3cc(C(=O)NCc4ccc(F)nc4F)c(=O)c(O)c3C(=O)N12 [Compound 1.1.19, (3S,11aR)-6-hydroxy-N-[(2,6-difluoropyridin-3-yl)methyl]-3-methyl-5,7-dioxo-2,3,5,7,11,11a-hexahydro[1,3]oxazolo[3,2-a]pyrido[1,2-d]pyrazine-8-carboxamide]",concentration at 8 h,"male, Sprague-Dawley, rat plasma, oral 5 mg/kg, 8 h, read-out: C8 h",7910 ng/mL
same,concentration at 24 h,"male, Sprague-Dawley, rat plasma, oral 5 mg/kg, 24 h, read-out: C24 h",4440 ng/mL
same,AUCINF,"rat plasma, IV 1 mg/kg",367.627 µg·h/mL
same,AUClast,"rat plasma, IV 1 mg/kg",202.189 µg·h/mL
same,Cmax,"rat plasma, IV 1 mg/kg",18550 ng/mL
same,MRTlast,"rat plasma, IV 1 mg/kg",9.46 h
same,T1/2,"rat plasma, IV 1 mg/kg",21.2 h
same,Tmax,"rat plasma, IV 1 mg/kg",0.08 h
same,kel,"rat plasma, IV 1 mg/kg",0.03 h⁻¹
same,AUCINF,"rat plasma, oral 5 mg/kg",282.07 µg·h/mL
same,AUClast,"rat plasma, oral 5 mg/kg",176.506 µg·h/mL
same,Cmax,"rat plasma, oral 5 mg/kg",11488 ng/mL
same,MRTlast,"rat plasma, oral 5 mg/kg",9.42 h
same,T1/2,"rat plasma, oral 5 mg/kg",16.5 h
same,Tmax,"rat plasma, oral 5 mg/kg",3 h
same,kel,"rat plasma, oral 5 mg/kg",0.04 h⁻¹
same,F (bioavailability),"rat, oral 5 mg/kg vs IV 1 mg/kg, F=(AUClast PO/5·AUClast IV)·100",17.5%
